Counter-ions that a name gives are not always drawn.
Test system: TMK-1 human gastric carcinoma cells implanted into the stomachs of nude mice
Experiment: Treatment of established human gastric cancer tumors growing in murine gastric walls; Lyve-1 immunohistochemical determination of the area of lymphatic vessels
Assay type: in vivo, athymic BALB/c nude mice
Settings: TMK-1 orthotopic gastric tumors in nude mice, imatinib mesylate 50 mg/kg daily oral gavage for 28 days, started 14 days after implantation, versus control (water), P<0.05
Source text: Animals and orthotopic implantation of tumor cells. Male athymic BALB/c nude mice (Charles River Japan, Tokyo) were maintained under specific pathogen-free conditions and used at 5 weeks of age. Subconfluent gastric cancer cells (TMK-1 or KKLS cells) to be used for implantation were harvested by brief treatment with 0.25% trypsin and 0.02% ethylenediamine tetraacetic acid, and then re-suspended to a final concentration of 2.0×10^7 cells/mL Hanks' solution. With the use of a 30-gauge needle attached to a 1-mL syringe, cells (1×10^6 cells in 50 μl) were implanted into the gastric walls in the nude mice under observation with a zoom stereomicroscope. […]
Treatment of established human gastric cancer tumors growing in murine gastric walls. Fourteen days after orthotopic implantation of TMK-1 cells, mice (n=10 each group) were randomly assigned to receive one of the following two treatments daily oral gavage of water (control group) or daily oral gavage of imatinib mesylate (50 mg/kg, optimal biological dose as determined previously (Hwang R F, et al. Clin Cancer Res 2003; 9: 6534-44) The treatments continued for 28 days. All therapy experiments were performed twice. The mice bearing orthotopic tumors were euthanised by methophane on day 29. For immunohistochemistry, the tumor tissues were fixed in formalin and embedded in paraffin. […]

With Cc1ccc(NC(=O)c2ccc(CN3CCN(C)CC3)cc2)cc1Nc1nccc(-c2cccnc2)n1 [imatinib mesylate] the “area of lymphatic vessels in tumors (Lyve-1 immunohistochemistry)” value was “reduced areas of lymphatic vessels” and the “area of lymphatic vessels in tumors (Lyve-1 immunohistochemistry)” value (listed as imatinib) was “significantly reduced the area of lymphatic vessels”.

Reference: patent US9101630B2, “Use of PDGF-R inhibitors for the treatment of lymph node metastasis of gastric cancer” (priority 2010, dated 2015)
